Where only a bound is given, the exact number is not on record here.

Experiment [1] has as its target T1, KRAS G12C (Homo sapiens (Human), UniProt P01116, G12C). As to the kind of experiment: SPR binding affinity and kinetics, GTPγS-loaded KRAS G12C. To be noted: GTPγS loaded protein, geomean. The procedure, abridged:
(§1)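 Kinetic and affinity values come from fitted SPR sensorgrams, the fit accepted on c2 values and randomly distributed residues. Dissociation was followed for at least 3600 seconds without any additional regeneration.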

Experiment [2] has as its target T2, KRAS Wild Type (Homo sapiens (Human), UniProt P01116). As to the kind of experiment: SPR binding affinity and kinetics, GDP-loaded KRAS Wild Type. Conditions: GDP loaded protein, geomean. The text has this:
(§2) No additional regeneration was used.
(§3) Compound dissociation was monitored for at least 3600 seconds. […] No additional regeneration was used.
(§4) The adequateness of the fit was judged by c2 values and the randomness of residue distribution.

The target of experiment [3] is T3, KRAS G12V (Homo sapiens (Human), UniProt P01116, G12V). Kind of experiment: SPR binding affinity and kinetics, GDP-loaded KRAS G12V. Conditions: GDP loaded protein, geomean.
From the text: as §2, §3, §4

Experiment [4] concerns the target T2, KRAS Wild Type. As to the kind of experiment: SPR binding affinity and kinetics, GTPγS-loaded KRAS Wild Type. To be noted: GTPγS loaded protein, geomean. The procedure, abridged:
as §1

For experiment [5], the system named is SW620 (colorectal cancer cell line). As to the kind of experiment: KRAS Cell Titer Glo (CTG) cell proliferation assay, SW620. It is filed as cell-based. Conditions: Homo sapiens, SW-620, 168 h; SW620 cells, 7-day CTG, geomean IC50. The procedure, abridged: (§5)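 Compounds pre-dispensed in 0.1% DMSO before seeding H358 (300 cells/well), SW620 (750) or PANC08.13 (600); 7-day exposure at 37 °C, 5% CO2. Viability by CellTiter-Glo luminescence after 15 min at room temperature. Percent effect normalised to DMSO (0%) and 1 uM trametinib (100%); geomean IC50.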
(ATP-based viability assays read luminescence as a measure of living cells.)

The subject of experiment [6] is H358 (non-small cell lung cancer cell line). As to the kind of experiment: KRAS Cell Titer Glo (CTG) cell proliferation assay, H358. It is filed as cell-based. To be noted: Homo sapiens, NCI-H358, 168 h; H358 cells, 7-day CTG, geomean IC50. In outline: as §5
Experiment [7] has as its system PANC08.13 (pancreatic cancer cell line). Kind of experiment: KRAS Cell Titer Glo (CTG) cell proliferation assay, PANC08.13. It is filed as cell-based. Conditions: Homo sapiens, PANC-08-13, 168 h; PANC08.13 cells, 7-day CTG, geomean IC50. The procedure, abridged: as §5
For experiment [8], the target named is T3, KRAS G12V. As to the kind of experiment: SPR binding affinity and kinetics, GTPγS-loaded KRAS G12V. To be noted: GTPγS loaded protein, geomean. In outline: as §1
In general terms: Surface plasmon resonance follows binding to a sensor surface in real time, without labels.

The target in experiment [9] is T4, KRAS G12D (Homo sapiens (Human), UniProt P01116, G12D). As to the kind of experiment: SPR binding affinity and kinetics, GTPγS-loaded KRAS G12D. Conditions: GTPγS loaded protein, geomean. The procedure, abridged:
as §1

Experiment [10] addresses T4, KRAS G12D. As to the kind of experiment: SPR binding affinity and kinetics, GDP-loaded KRAS G12D. Conditions: GDP loaded protein, geomean.
From the text: as §2, §3, §4

Experiment [11] addresses T1, KRAS G12C. Kind of experiment: SPR binding affinity and kinetics, GDP-loaded KRAS G12C. Conditions: GDP loaded protein, geomean.
From the text: as §2, §3, §4

In the next experiment the target is NRAS Wild Type (Homo sapiens (Human), UniProt P01111). Kind of experiment: SPR binding affinity and kinetics, GTPγS-loaded NRAS Wild Type. Conditions: GTPγS loaded protein, geomean.
From the text: as §2, §3, §4

The next experiment has as its target HRAS Wild Type (Homo sapiens (Human), UniProt P01112). As to the kind of experiment: SPR binding affinity and kinetics, GTPγS-loaded HRAS Wild Type. To be noted: GTPγS loaded protein, geomean.
From the text: as §2, §3, §4

T4 sequence (P01116 other isoform, or with tags, fused parts or gaps G12D): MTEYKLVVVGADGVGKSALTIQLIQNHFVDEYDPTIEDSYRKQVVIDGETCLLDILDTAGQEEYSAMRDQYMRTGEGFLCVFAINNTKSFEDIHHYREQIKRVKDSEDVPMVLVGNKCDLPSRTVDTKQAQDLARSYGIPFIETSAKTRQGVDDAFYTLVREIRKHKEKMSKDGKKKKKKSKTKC
T3 sequence (P01116 other isoform, or with tags, fused parts or gaps G12V): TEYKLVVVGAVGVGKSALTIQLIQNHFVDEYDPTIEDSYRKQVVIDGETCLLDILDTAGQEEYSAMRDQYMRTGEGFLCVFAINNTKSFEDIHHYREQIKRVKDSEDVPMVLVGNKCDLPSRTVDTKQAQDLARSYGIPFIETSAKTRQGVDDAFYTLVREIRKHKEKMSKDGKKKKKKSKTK
T2 sequence (P01116 other isoform, or with tags, fused parts or gaps): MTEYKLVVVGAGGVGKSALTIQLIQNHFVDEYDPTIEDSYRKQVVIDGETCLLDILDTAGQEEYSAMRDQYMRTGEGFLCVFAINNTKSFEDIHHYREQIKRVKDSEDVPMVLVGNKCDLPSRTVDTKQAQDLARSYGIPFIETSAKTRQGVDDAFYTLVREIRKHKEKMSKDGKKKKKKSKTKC
T1 sequence (P01116 other isoform, or with tags, fused parts or gaps G12C): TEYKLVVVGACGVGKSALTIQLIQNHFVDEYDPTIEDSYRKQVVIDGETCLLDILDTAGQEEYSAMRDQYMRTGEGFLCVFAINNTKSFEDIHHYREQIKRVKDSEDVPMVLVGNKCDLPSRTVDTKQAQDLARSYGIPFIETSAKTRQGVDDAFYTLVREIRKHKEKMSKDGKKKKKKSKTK
NRAS Wild Type, sequence (P01111 2-185): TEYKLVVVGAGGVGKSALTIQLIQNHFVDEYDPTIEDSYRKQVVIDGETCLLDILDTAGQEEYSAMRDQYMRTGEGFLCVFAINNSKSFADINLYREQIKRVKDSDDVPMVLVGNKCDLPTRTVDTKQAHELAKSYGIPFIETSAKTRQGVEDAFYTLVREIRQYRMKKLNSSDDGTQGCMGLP
HRAS Wild Type, sequence (P01112 2-184): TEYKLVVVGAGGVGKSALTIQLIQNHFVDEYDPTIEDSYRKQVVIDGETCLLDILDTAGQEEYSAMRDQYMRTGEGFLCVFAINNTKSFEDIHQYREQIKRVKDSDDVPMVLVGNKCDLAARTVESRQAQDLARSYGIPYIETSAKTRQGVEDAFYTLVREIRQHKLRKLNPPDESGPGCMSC

Broadly, the Kd is a measure of binding affinity in units of concentration. The low end stands for a tighter complex, the high end for a looser complex. In general, IC50 refers to the concentration that gives 50% inhibition. For the compound `Fc1c(-c2cccc3[nH]ncc23)nc2c3c(nc(OC[C@@]45CCCN4C[C@H](F)C5)nc13)N1CCCOC[C@H]1CO2` [Example 3, (8aS)-4-fluoro-2-{[(2R,7aS)-2-fluorotetrahydro-1H-pyrrolizin-7a(5H)-yl]methoxy}-5-(1H-indazol-4-yl)-8a,9,12,13-tetrahydro-8H,11H-7,10-dioxa-1,3,6,13a-tetraazanaphtho[1,8-ab]heptalene], the Kd was more than 1000 nM at KRAS G12C [1]; more than 10000 nM at KRAS Wild Type [2]; more than 10000 nM at KRAS G12V [3]; more than 1000 nM on KRAS Wild Type [4]; more than 1000 nM at KRAS G12V [8]; more than 1000 nM at KRAS G12D [9]. For the same compound, the Kd on KRAS G12D [10] and on KRAS G12C [11] was more than 10000 nM in each case. Moreover, the IC50 in experiment [5], in experiment [6] and in experiment [7] was more than 9990 nM in each case.

Take `Fc1c(-c2c(Cl)c(Cl)cc3[nH]ncc23)nc2c3c(nc(OC[C@@]45CCCN4C[C@H](F)C5)nc13)N1CCCC[C@H]1CO2` [Example 4, (8aS)-5-(5,6-dichloro-1H-indazol-4-yl)-4-fluoro-2-{[(2R,7aS)-2-fluorotetrahydro-1H-pyrrolizin-7a(5H)-yl]methoxy}-8,8a,9,10,11,12-hexahydro-7-oxa-1,3,6,12a-tetraazabenzo[4,5]cyclohepta[1,2,3-de]naphthalene]: the Kd at KRAS G12C [1] was 2270 nM; at KRAS Wild Type [2], 7.72 nM; at KRAS G12V [3], 2.6 nM; at KRAS Wild Type [4] it was 2290 nM; at KRAS G12V [8], 1590 nM; at KRAS G12D [9] it was 2030 nM. The Kd at KRAS G12D [10] was found to be 1.36 nM; at KRAS G12C [11], 4.29 nM. Also, the IC50 in [5] worked out at 3380 nM; in experiment [6], 534 nM; in experiment [7], 299 nM.

Take `C=C1CN2CCC[C@@]2(COc2nc3c4c(nc(-c5c(C)ccc6[nH]ncc56)c(F)c4n2)OC[C@@H]2COCCCN32)C1` [Example 5, (8aS)-4-fluoro-2-{[(7aS)-2-methylidenetetrahydro-1H-pyrrolizin-7a(5H)-yl]methoxy}-5-(5-methyl-1H-indazol-4-yl)-8a,9,12,13-tetrahydro-8H,11H-7,10-dioxa-1,3,6,13a-tetraazanaphtho[1,8-ab]heptalene]: the Kd at KRAS G12C [1] was 1560 nM; at KRAS Wild Type [2], 5.42 nM; on KRAS G12V [3], 2.76 nM; at KRAS Wild Type [4], 1450 nM; at KRAS G12V [8] it was 1430 nM; on KRAS G12D [9], 1240 nM. Further, the Kd was determined as 2.2 nM on KRAS G12D [10] and 1.95 nM at KRAS G12C [11]. The IC50 in experiment [5] was determined as 2680 nM; in experiment [6] it was 2320 nM; in experiment [7], 1040 nM.

On to `C=C1CN2CCC[C@@]2(COc2nc3c4c(nc(-c5c(Cl)ccc6[nH]ncc56)c(F)c4n2)OC[C@@H]2COCCCN32)C1` [Example 6, (8aS)-5-(5-chloro-1H-indazol-4-yl)-4-fluoro-2-{[(7aS)-2-methylidenetetrahydro-1H-pyrrolizin-7a(5H)-yl]methoxy}-8a,9,12,13-tetrahydro-8H,11H-7,10-dioxa-1,3,6,13a-tetraazanaphtho[1,8-ab]heptalene], for which the Kd was found to be 635 nM at KRAS G12C [1]; 2.51 nM at KRAS Wild Type [2]; 1.23 nM at KRAS G12V [3]; 546 nM on KRAS Wild Type [4]; 639 nM at KRAS G12V [8]; 467 nM on KRAS G12D [9]. Also, the Kd was found to be 0.956 nM on KRAS G12D [10] and 0.894 nM at KRAS G12C [11]. In addition, the figures for the IC50 in [5], in experiment [6] and in experiment [7] were 1320 nM, 847 nM and 404 nM, respectively.

On to `C=C1CN2CCC[C@@]2(COc2nc3c4c(nc(-c5c(C(F)F)ccc6[nH]ncc56)c(F)c4n2)OC[C@@H]2COCCCN32)C1` [Example 10, (8aS)-5-[5-(difluoromethyl)-1H-indazol-4-yl]-4-fluoro-2-{[(7aS)-2-methylidenetetrahydro-1H-pyrrolizin-7a(5H)-yl]methoxy}-8a,9,12,13-tetrahydro-8H,11H-7,10-dioxa-1,3,6,13a-tetraazanaphtho[1,8-ab]heptalene], for which the Kd came out at 3230 nM on KRAS G12C [1]; 8.03 nM at KRAS Wild Type [2]; 3.9 nM on KRAS G12V [3]; 2880 nM at KRAS Wild Type [4]; 2820 nM at KRAS G12V [8]; 2550 nM on KRAS G12D [9]. The values for the Kd on KRAS G12D [10] and on KRAS G12C [11] were 2.07 nM and 1.81 nM, respectively. The IC50 in experiment [5] was 9530 nM; in [6], 4540 nM; in experiment [7], 475 nM.

With `C=C1CN2CCC[C@@]2(COc2nc3c4c(nc(-c5c(Cl)c(Cl)cc6[nH]ncc56)c(F)c4n2)OC[C@@H]2COCCCN32)C1` [Example 11, (8aS)-5-(5,6-dichloro-1H-indazol-4-yl)-4-fluoro-2-{[(7aS)-2-methylidenetetrahydro-1H-pyrrolizin-7a(5H)-yl]methoxy}-8a,9,12,13-tetrahydro-8H,11H-7,10-dioxa-1,3,6,13a-tetraazanaphtho[1,8-ab]heptalene], the Kd came out at 39 nM at KRAS G12C [1]; 0.091 nM at KRAS Wild Type [2]; 0.067 nM at KRAS G12V [3]; 40 nM on KRAS Wild Type [4]; 29 nM at KRAS G12V [8]; 19 nM at KRAS G12D [9]. In addition, the figures for the Kd on KRAS G12D [10] and on KRAS G12C [11] were 0.024 nM and 0.051 nM, respectively. For the same compound, the IC50 in [5] came to 315 nM; in experiment [6], 136 nM; in experiment [7], 21 nM.

For `C=C1CN2CCC[C@@]2(COc2nc3c4c(nc(-c5c(C(F)(F)F)ccc6[nH]ncc56)c(F)c4n2)OC[C@@H]2COCCCN32)C1` [Example 12, (8aS)-4-fluoro-2-{[(7aS)-2-methylidenetetrahydro-1H-pyrrolizin-7a(5H)-yl]methoxy}-5-[5-(trifluoromethyl)-1H-indazol-4-yl]-8a,9,12,13-tetrahydro-8H,11H-7,10-dioxa-1,3,6,13a-tetraazanaphtho[1,8-ab]heptalene], the Kd at KRAS G12C [1] stood at 84 nM; on KRAS Wild Type [2], 0.257 nM; at KRAS G12V [3], 0.106 nM; on KRAS Wild Type [4] it was 95 nM; on KRAS G12V [8] it was 62 nM; on KRAS G12D [9], 42 nM. The Kd was 0.116 nM on KRAS G12D [10] and 0.122 nM on KRAS G12C [11]. Besides, the IC50 in experiment [5] is 463 nM; in experiment [6], 211 nM; in experiment [7], 35 nM.

In the case of `C=C1CN2CCC[C@@]2(COc2nc3c4c(nc(-c5c(C(F)(F)F)c(Cl)cc6[nH]ncc56)c(F)c4n2)OC[C@@H]2COCCCN32)C1` [Example 13, (8aS)-5-[6-chloro-5-(trifluoromethyl)-1H-indazol-4-yl]-4-fluoro-2-{[(7aS)-2-methylidenetetrahydro-1H-pyrrolizin-7a(5H)-yl]methoxy}-8a,9,12,13-tetrahydro-8H,11H-7,10-dioxa-1,3,6,13a-tetraazanaphtho[1,8-ab]heptalene], the Kd at KRAS G12C [1] was 4 nM; at KRAS Wild Type [2] it was less than 0.001 nM; on KRAS G12V [3], 0.072 nM; at KRAS Wild Type [4], 5 nM; on KRAS G12V [8], 3 nM; at KRAS G12D [9] it was 1 nM. Further, the values for the Kd on KRAS G12D [10] and on KRAS G12C [11] were 0.106 nM and 0.017 nM, respectively. Besides, the IC50 in [5] worked out at 70 nM; in experiment [6] it was 26 nM; in experiment [7], 7 nM.

As to `C[C@@H]1CCCc2cc3[nH]ncc3c(-c3nc4c5c(nc(OC[C@@]67CCCN6C/C(=C/F)C7)nc5c3F)N3CCCOC[C@H]3CO4)c21` [Example 55, (8aS)-4-fluoro-2-{[(2E,7aS)-2-(fluoromethylidene)tetrahydro-1H-pyrrolizin-7a(5H)-yl]methoxy}-5-[(5R)-5-methyl-5,6,7,8-tetrahydro-1H-benzo[f]indazol-4-yl]-8a,9,12,13-tetrahydro-8H,11H-7,10-dioxa-1,3,6,13a-tetraazanaphtho[1,8-ab]heptalene], the Kd at KRAS G12C [1] is 1 nM; at NRAS Wild Type, more than 10000 nM; at KRAS Wild Type [4], 3 nM; at HRAS Wild Type, more than 10000 nM; at KRAS G12V [8], 2 nM; at KRAS G12D [9], 2 nM. The results for the IC50 in [5], in experiment [6] and in [7] were 6 nM, 24 nM and 13 nM, respectively.
